Test results reported in patent publication EP0430025A2, “Xanthine compound, method for preparing thereof, and a pharmaceutical composition comprising the same” (HOKURIKU PHARMACEUTICAL CO., LTD., priority 1989, dated 1991).
pEC50: −log10 of the molar value.

Columns and labels:
[1] = test system: isolated guinea-pig atria; experiment: Chronotropic activity in the isolated guinea-pig atrium (spontaneous beating rate of right atrium); details: 15% increase of spontaneous beating rate of right atrium; cumulative addition; 30°C
Experimental: Male Hartley guinea-pig weighing about 500 g was sacrificed and the right atrium was removed. The atrium was mounted vertically in an organ bath containing Krebs-Henseleit solution. The bath medium was maintained at 30°C and was equilibrated with a gas mixture consisting of 95% 0₂ and 5% CO₂. A restintion of 0.5 g was applied. The spontaneous beating rates for the right atrium were recorded by using a heart rate counter. The test compounds were added cumulatively to the bath. ED₁₅ values representing the amount of the compound which produced 15% increases of the spontaneous beating rates for the right atria were caluculated on the basis of the results obtained.

[2] = test system: isolated dog mesenteric artery; experiment: Relaxation activity in the isolated dog mesenteric artery (pre-contracted with prostaglandin F2α); details: for pEC50: Canis lupus familiaris, 50% of maximal relaxation (10⁻⁴M papaverine), pre-contracted with prostaglandin F₂α 3 × 10⁻⁶ M, 37°C, read-out: relaxation activity in the isolated dog mesenteric artery ED₅₀; for relative effectiveness of the compounds to reference B: dog mesenteric artery ED₅₀ relative to reference compound B (propentofylline) = 1
Experimental: The mesenteric arteries were isolated from mongrel dogs of either sex weighing about 10kg. Each helical strip (2 mm in width and 20 mm in length) was mounted vertically in an organ bath containing Krebs-Henseleit solution. The bath medium was maintained at 37 °C and was equilibrated with a gas mixture consisting of 95% O₂ and 5% […]. A resting tension of 1.0 g was applied and the response was recorded isometrically. The preparations were pre-contracted with prostaglandin F₂ α (3 × 10⁻⁶ M) and the smooth muscle relaxations induced by the test compounds were recorded. The test compounds were added cumulatively to the bath. ED₅₀ values representing the amount of the compound which produces 50% relaxations of the maximal relaxations (10 ⁻⁴M papaverine) were caluculated on the basis of the results obtained above.

[3] = test system: complete cerebral ischemia in mice; experiment: Protective effect on complete cerebral ischemia in mice (gasping duration after decapitation); format: in vivo; details: 50 mg/kg, p.o., 30 minutes before decapitation; male ddY mice
Experimental: Male ddY mice weighing about 25 g were used. Complete cerebral ischemia was produced by the amputation of the cervix between the medulla oblongata and the spinal cord. The time between decapitation and the last gasp was recorded as gasping duration. Test compounds were suspended with 0.5% carboxymethylcellulose except propentofylline which was dissolved in distilled H₂O, and then administered orally 30 minutes before the decapitation. The gasping duration was evaluated at the dose of 50 mg/kg.

[4] = test system: isolated guinea-pig trachea; experiment: Relaxation activity in the isolated guinea-pig trachea (resting tonus, organ bath); details: for pEC50: Cavia porcellus, 50% of maximal relaxation (10⁻⁶M isoproterenol), resting tonus, cumulative addition, 37°C, read-out: relaxation activity in the isolated guinea-pig trachea ED₅₀; for relative effectiveness of the compounds to reference A: guinea-pig trachea ED₅₀ relative to reference compound A (theophylline) = 1
Experimental: Male Hartley guinea-pigs weighing about 500 g were sacrificed and the trachea were removed. The tracheal chain strips were made and the preparations were mounted vertically in an organ bath containing Locke-Ringer solution. The bath medium was maintained at 37°C and was equilibrated with a gas mixture consisting of 95% O₂ and 5% CO₂. Relaxation activities of the test compounds on the resting tonus of the preparations were recorded isotonically. The test compounds were added cumulatively to the bath. ED₅₀ values representing the amount of the compound tested which produces 50% relaxations of the maximal relaxations (10⁻⁶M isoproterenol) were calculated on the basis of the results obtained above.

| SMILES | chronotropic activity in the isolated guinea-pig atria ED₁₅ [1] [× 10⁻⁵ M] | pEC50 [2] | relative effectiveness of the compounds to reference B [2] | protective effect on complete cerebral iscehemia in mice gasping duration [3] [%] | pEC50 [4] | relative effectiveness of the compounds to reference A [4] |
| --- | --- | --- | --- | --- | --- | --- |
| CC(=O)Cn1c(=O)c2c(ncn2C)n(C2CC2)c1=O [Example 3, 3-Cyclopropyl-3,7-dihydro-7-methyl-1-(2-oxopropyl)-1H-purine-2,6-dione] | > 10 | – | – | – | – | – |
| CC(=O)CCCCn1c(=O)c2c(ncn2C)n(C2CC2)c1=O [Example 6, 3-Cyclopropyl-3,7-dihydro-7-methyl-1-(5-oxohexyl)-1H-purine-2,6-dione] | > 10 | 4.82 | 2.5 | – | – | – |
| CCCCn1cnc2c1c(=O)n(CCCCC(C)=O)c(=O)n2C1CC1 [Example 15, 7-n-Butyl-3-cyclopropyl-3,7-dihydro-1-(5-oxohexyl)-1H-purine-2,6-dione] | > 10 | 4.44 | 1.1 | 112.3 | 4.74 | 1.6 |
| CCCCCn1cnc2c1c(=O)n(CCCCC(C)=O)c(=O)n2C1CC1 [Example 16, 3-Cyclopropyl-3,7-dihydro-1-(5-oxohexyl)-7-n-pentyl-1H-purine-2,6-dione] | > 10 | – | – | 107.8 | 4.64 | 1.2 |
| CCCCCCn1cnc2c1c(=O)n(CCCCC(C)=O)c(=O)n2C1CC1 [Example 17, 3-Cyclopropyl-7-n-hexyl-3,7-dihydro-1-(5-oxohexyl)-1H-purine-2,6-dione] | > 10 | 4.74 | 2.1 | 106.8 | 4.96 | 2.5 |
| CC(=O)CCCCn1cnc2c1c(=O)n(C)c(=O)n2C1CC1 [Example 25, 3-Cyclopropyl-3,7-dihydro-1-methyl-7-(5-oxohexyl)-1H-purine-2,6-dione] | > 10 | – | – | – | – | – |
| CCn1c(=O)c2c(ncn2CC(C)=O)n(C2CC2)c1=O [Example 26, 3-Cyclopropyl-1-ethyl-3,7-dihydro-7-(2-oxopropyl)-1H-purine-2,6-dione] | – | 5.00 | 3.8 | – | 4.85 | 2.0 |
| CCCCn1c(=O)c2c(ncn2CC(C)=O)n(C2CC2)c1=O [Example 30, 1-n-Butyl-3-cyclopropyl-3,7-dihydro-7-(2-oxopropyl)-1H-purine-2,6-dione] | > 10 | 6.25 | 68 | – | 5.82 | 19 |
| CCCCCCn1c(=O)c2c(ncn2CC(C)=O)n(C2CC2)c1=O [Example 34, 3-Cyclopropyl-1-n-hexyl-3,7-dihydro-7-(2-oxopropyl)-1H-purine-2,6-dione] | > 10 | 6.19 | 59 | – | 5.22 | 4.7 |
| Cn1cnc2c1c(=O)n(CCCCC1(C)OCCO1)c(=O)n2C1CC1 [Example 38, 3-Cyclopropyl-3,7-dihydro7-methyl-1-[4-(2-methyl-1,3-dioxolan-2-yl)butyl]-1H-purine-2,6-dione] | > 10 | – | – | – | – | – |
| CCCCn1c(=O)c2c(ncn2CC2(C)OCCO2)n(C2CC2)c1=O [Example 40, 1-n-Butyl-3-cyclopropyl-3,7-dihydro-7-[(2-methyl-1,3-dioxolan-2-yl)methyl]-1H-purine-2,6-dione] | > 10 | – | – | – | 4.80 | 1.8 |
| Cn1c(=O)c2[nH]cnc2n(C)c1=O [Reference compound A, theophylline, reference compound] | 7.6 | – | – | – | 4.55 | 1 |
| CCCn1cnc2c1c(=O)n(CCCCC(C)=O)c(=O)n2C [Reference compound B, propentofylline, reference compound] | 5.1 | 4.42 | 1 | 106.4 | – | – |
